From patent EP3050567B1, “COMPOUND FOR ACTIVATING AMPK AND USES THEREOF” (Energenesis Biomedical Co., Ltd., priority 2013, dated 2015)

Columns and labels:
[1] = tested on: Aβ infusion mice; test: Aβ-induced Alzheimer's disease model mice, Morris water maze assay; type: in vivo, C57BL/6J mice; conditions: AD mice, daily IP adenine 0.01, 0.1, 5 or 30 mg/kg for 4 weeks, vs control AD mice
Protocol: Aβ25-35 was purchased from Sigma-Aldrich (St. Louis, Missouri). The peptides were dissolved in distilled saline and aggregated by incubation at 37°C for 7 days before injection. C57BL/6J mice were maintained at 22° C under a 12-h light/dark cycle. Adult mice were anesthetized by ketamine (500 mg/kg) and xylazine (100 mg/kg) and placed in a stereotaxic frame. Five nmol of the aggregated Aβ25-35 were injected into the lateral ventricle using a 10 µl Hamilton syringe. The target anterior-posterior (AP), medial-lateral (ML) and dorsoventral coordinates were -0.5 mm, ±1 mm and -2.5 mm relative to the bregma. To evaluate the effect of adenine on neurodegenerative disease, Aβ infusion mice were daily intraperitoneally injected with 0.01, 0.1, 5 or 30 mg/kg bodyweight of adenine or vehicle for 4 weeks. The cognitive functions of these mice were analyzed by using Morris water maze assay after 4 weeks injection. The water maze was performed in a circular pool filled with water and a platform was submerged below the water's surface in the target quadrant for hidden platform test. During the 5-day hidden platform test, mice were randomly placed into starting points of the pool in each daily trial (6 trials per day). […] Mice were allowed to swim in the maze for 60 s and recorded by a video camera. The latency to find the platform and swim paths was analyzed by software.

[2] = tested on: Human umbilical vein endothelial cells (HUVECs); test: ROS production (H2DCF-DA) under high glucose; type: cell-based; conditions: 30 mM glucose, 24 h
Protocol: Human umbilical vein endothelial cells (HUVECs) were cultured in Dulbecco's modified Eagle's medium (DMEM) containing 10% fetal bovine serum (FBS), 4 mM L-glutamine, 2 mM sodium pyruvate and 1% penicillin/streptomycin (Invitrogen GibcoBRL, Carlsbad, Calif., USA) at 37°C under 5% CO2. Cells were plated at 2×10^4 per well in black 96-well. Twenty-four hours after plating, medium was changed to fresh DMEM containing either 5.6 or 30 mM glucose and treated with indicated concentration of adenine. Twenty-four hours after treatment, the intracellular ROS was detected using H2DCF-DA. Cells were washed once with PBS and then incubated with 100 µM DCF at 37°C for 30 min. Then the fluorescence of DCF was measured using a Fluorescence Microplate Reader System at 485-nm excitation and 530-nm emission wavelengths.

[3] = tested on: high-fat diet-fed mice; test: Anti-diabetic effects in high-fat diet-fed mice; type: in vivo, C57BL/6J mice; conditions: adenine 0.1 to 50 mg/kg IP twice a day for 6 days, compared to control group
Protocol: To further evaluate the effects of adenine on the modulation of plasma glucose level, the high-fat diet-fed mice were served as a type 2 diabetes animal model. C57BL/6J mice were maintained at 22°C under a 12-h light/dark cycle and fed either a high fat diet (60% kcal% fat) or a normal diet ad libitum. Intraperitoneal injections of adenine (0.1 to 50 mg/kg) or vehicle were given to the high-fat diet-fed mice from the age of 24 weeks and glucose readings were measure at 1 and 3 hr. IP administration of adenine or vehicle only to the high-fat diet-fed mice continued twice a day for 6 days. On day 6, plasma was collected 1 hr after the last dosing for analyzing, evaluating, measuring plasma glucose and triglycerides.

[4] = tested on: AMPK; test: AMPK activation assay (phospho-AMPK Thr172 western blot) in Hep G2 cells; type: cell-based, human; conditions: 30 min
Protocol: (§1) Effects of adenine on AMPK activation were evaluated based on the phosphorylation of AMPK protein upon adenine treatment. Mouse muscle cell C2C12, mouse fibroblast 3T3, human liver carcinoma cell Hep G2, human breast adenocarcinoma cell line MCF7 and human colon adenocarcinoma grade II cell line HT29, human umbilical vein endothelial cell HUVEC, Human acute monocytic leukemiacell THP1, human macrophage cell U937, murine microglia cell BV-2, and mouse neuroblastoma cell Neuro2A and dermal papilla cell were cultured in high-glucose Dulbecco's modified Eagle's medium (DMEM) containing 10% fetal bovine serum (FBS), 4 mM L-glutamine, 2 mM sodium pyruvate and 1% penicillin/streptomycin (Invitrogen GibcoBRL, Carlsbad, Calif., USA) at 37°C, under 5% CO2. Cells were plated at 3 × 10^5 per well in 6-well plates. Twenty-four hours after plating, adenine was added to the culture media as indicated. After 30 min cells were lysed and subject to western blot analysis. Equal amount of protein from each sample was separated by SDS-PAGE and then electroblotted on to PVDF membranes. Membranes were blocked with 3% BSA in PBS for 60 min and incubated with an anti-phospho-AMPK (Thr172) antibody (1:2,000, Cell signaling) or an anti-AMPK antibody (1:2,000, Cell signaling) at 4°C for 16 h followed by the corresponding secondary antibody for 1 h at room temperature (RT). Immunoreactive bands were detected by enhanced chemiluminescence and recorded using Kodak film. The detected signals were scanned and then quantified using TotalLab Quant software (TotalLab).

[5] = tested on: AMPK; test: AMPK activation assay (phospho-AMPK Thr172 western blot) in HT29 cells; type: cell-based, human; conditions: 30 min
Protocol: as §1

[6] = tested on: IL-6; test: LPS-induced inflammatory response in THP1 macrophages, secreted IL-6 (ELISA); type: cell-based, human; conditions: 50 ng LPS 6 hr
Protocol: Effects of adenine on inflammatory response were evaluated in human THP1 macrophage by examining protein level of intracellular COX-2 and secreted TNFα, IL-1β and IL-6. Differentiation of THP1 monocytes into macrophages was induced by 50 nM PMA for 24 hr. THP1 macrophages were further stimulated by 50 ng LPS for 6 hr in the presence of 10-600 µM of adenine or vehicle followed by cell lysis and western blot analysis. Equal amounts of protein were separated by SDS-PAGE and then electroblotted on to PVDF membranes. Membranes were blocked with 3% BSA in PBS for 60 min and incubated with an anti-COX-2 antibody (1:1,000, Cell signaling), an anti-actin antibody (1:5,000, Cell signaling) at 4° C for 16 h followed by the corresponding secondary antibody for 1 h at room temperature (RT). Immunoreactive bands were detected by enhanced chemiluminescence and recorded using Kodak film. The detected signals were scanned and then quantified using TotalLab Quant software (TotalLab). The secreted TNFα, IL-1β and IL-6 were analyzed by enzyme-linked immunosorbent assays.

Q: Which “time to find platform (hidden platform test)” value ([1]; dose-dependent) does the source give for `Nc1ncnc2nc[nH]c12` [Adenine, adenine] here?
A: significantly shorter time

Q: And the “percentage time in target quadrant (probe assay)” value [1]?
A: higher percentage time

Q: What about the “ROS production (% of 5.6 mM glucose)” value ([2]; adenine 10 microM) of the same compound?
A: 211 ± 4.3 % of 5.6 mM glucose

Q: What about the “ROS production (% of 5.6 mM glucose)” value ([2]; adenine 100 microM) of the same compound?
A: 116 ± 1.7 % of 5.6 mM glucose

Q: And the “ROS production (% of 5.6 mM glucose)” value ([2]; adenine 200 microM)?
A: 38.1 ± 2.9 % of 5.6 mM glucose

Q: And the “ROS production (% of 5.6 mM glucose)” value ([2]; adenine 600 microM)?
A: 21.7 ± 3.1 % of 5.6 mM glucose

Q: And the “ROS production (% of 5.6 mM glucose)” value ([2]; adenine 1200 microM)?
A: 22.4 ± 2.5 % of 5.6 mM glucose

Q: What about the lower body weight [3] of the same compound?
A: more than 15%

Q: And the lower plasma glucose [3]?
A: > 30%

Q: And the lower plasma triacylglycerides [3]?
A: more than 35%

Q: And the lower plasma glucose ([3]; listed as adenine)?
A: more than 30%

Q: And the “AMPK activation (fold to control)” value ([4]; adenine 1 microM)?
A: 1.1 fold to control

Q: And the “AMPK activation (fold to control)” value ([4]; adenine 10 microM)?
A: 2.1 fold to control

Q: And the “AMPK activation (fold to control)” value ([4]; adenine 100 microM)?
A: 3.3 fold to control

Q: And the “AMPK activation (fold to control)” value ([4]; adenine 200 microM)?
A: 3.8 fold to control

Q: What about the “AMPK activation (fold to control)” value ([4]; adenine 600 microM) of the same compound?
A: 4.2 fold to control

Q: What about the “AMPK activation (fold to control)” value ([5]; adenine 1 microM) of the same compound?
A: 1.1 fold to control

Q: And the “AMPK activation (fold to control)” value ([5]; adenine 10 microM)?
A: 1.7 fold to control

Q: What about the “AMPK activation (fold to control)” value ([5]; adenine 100 microM) of the same compound?
A: 2.9 fold to control

Q: What about the “AMPK activation (fold to control)” value ([5]; adenine 200 microM) of the same compound?
A: 3.4 fold to control

Q: And the “AMPK activation (fold to control)” value ([5]; adenine 600 microM)?
A: 3.8 fold to control

Q: And the “IL-6 (% to control)” value ([6]; adenine 10 microM)?
A: 88±6.3 % to control

Q: And the “IL-6 (% to control)” value ([6]; adenine 100 microM)?
A: 21±7.8 % to control

Q: What about the “IL-6 (% to control)” value ([6]; adenine 600 microM) of the same compound?
A: 14±6.2 % to control
